# Results: patent publication US20230159538A1, “PYRROLIDINE-PYRAZOLES AS PYRUVATE KINASE ACTIVATORS” (Global Blood Therapeutics, Inc., priority 2020, published 2023)
# Target: T1, Human pyruvate kinase R (PKR) (Homo sapiens, UniProt P30613)
# T1 construct: Human pyruvate kinase R (PKR), residues 14-574; 6x-His (N, cleaved yes); 8x-Arg (N, cleaved yes); SUMO (N, cleaved yes); host or cells: E. coli
# Assay: Biochemical assay for activation of pyruvate kinase R (Kinase-Glo luminescence, ATP generation)
# Settings: 0.1 nM PKR, 2 mM FBP, 0.3 mM ADP, 0.1 mM PEP
# Method in brief: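 E. coli-expressed human PKR, freed of its His-Arg-SUMO tag and purified by anion exchange and size exclusion, was tested for activation. Read-out was luminescent measurement of ATP generation with Kinase-Glo reagent.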
# T1 sequence (P30613 14-574): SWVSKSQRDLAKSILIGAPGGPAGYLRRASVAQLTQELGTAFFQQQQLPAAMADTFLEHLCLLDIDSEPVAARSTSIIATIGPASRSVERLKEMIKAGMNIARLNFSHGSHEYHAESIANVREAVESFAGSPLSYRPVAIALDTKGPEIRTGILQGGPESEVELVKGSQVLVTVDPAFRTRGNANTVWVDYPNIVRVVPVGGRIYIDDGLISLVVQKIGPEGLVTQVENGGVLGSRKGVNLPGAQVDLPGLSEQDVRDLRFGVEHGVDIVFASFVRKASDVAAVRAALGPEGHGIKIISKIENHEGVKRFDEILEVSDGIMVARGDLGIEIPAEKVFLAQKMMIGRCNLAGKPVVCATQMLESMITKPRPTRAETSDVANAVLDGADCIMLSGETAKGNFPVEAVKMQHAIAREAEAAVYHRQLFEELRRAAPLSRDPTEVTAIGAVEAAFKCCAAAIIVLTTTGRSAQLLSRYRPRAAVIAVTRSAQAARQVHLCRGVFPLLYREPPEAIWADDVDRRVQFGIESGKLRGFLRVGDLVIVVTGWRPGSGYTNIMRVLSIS
row,AC50,Compound
1,29 nM,"O=C([C@H](O)c1ccccc1Cl)N1Cc2cn(S(=O)(=O)c3ccc4cn[nH]c4c3)nc2C1 [Compound 67, (2R)-2-(2-chlorophenyl)-2-hydroxy-1-[2-(1H-indazole-6-sulfonyl)-2H,4H,5H,6H-pyrrolo[3,4-c]pyrazol-5-yl]ethan-1-one]"
2,6 nM,"O=C([C@H](O)c1ccccc1F)N1Cc2cn(S(=O)(=O)c3ccc(OC(F)F)cc3)nc2C1 [Compound 72, (2R)-1-[2-[4-(difluoromethoxy)benzenesulfonyl]-4H,6H-pyrrolo[3,4-c]pyrazol-5-yl]-2-(2-fluorophenyl)-2-hydroxyethanone]"
3,13 nM,"O=CN[C@H](C(=O)N1Cc2cn(S(=O)(=O)c3ccc(OC(F)F)cc3)nc2C1)c1ccccc1 [Compound 73, N-[(1S)-2-{2-[4-(difluoromethoxy)benzenesulfonyl]-2H,4H,5H,6H-pyrrolo[3,4-c]pyrazol-5-yl}-2-oxo-1-phenylethyl]formamide]"
4,4.4 nM,"O=C(N1Cc2cn(S(=O)(=O)c3ccc(OC(F)F)cc3)nc2C1)C1(c2ncccc2Cl)COC1 [Compound 75, 3-chloro-2-(3-{2-[4-(difluoromethoxy)benzenesulfonyl]-2H,4H,5H,6H-pyrrolo[3,4-c]pyrazole-5-carbonyl}oxetan-3-yl)pyridine]"
5,6.9 nM,"O=C([C@H](CO)c1ccccc1)N1Cc2cn(S(=O)(=O)c3cnc4c(c3)OCCO4)nc2C1 [Compound 76, (2S)-1-(2-{2H,3H-[1,4]dioxino[2,3-b]pyridine-7-sulfonyl}-2H,4H,5H,6H-pyrrolo[3,4-c]pyrazol-5-yl)-3-hydroxy-2-phenylpropan-1-one]"
6,8.3 nM,"COc1ccc(S(=O)(=O)n2cc3c(n2)CN(C(=O)[C@H](CO)c2ccccc2)C3)cn1 [Compound 77, (2S)-3-hydroxy-1-{2-[(6-methoxypyridin-3-yl)sulfonyl]-2H,4H,5H,6H-pyrrolo[3,4-c]pyrazol-5-yl}-2-phenylpropan-1-one]"
7,4.7 nM,"O=CN[C@@H](C(=O)N1Cc2cn(S(=O)(=O)c3ccc(OC(F)F)cc3)nc2C1)c1ccccc1F [Compound 78, N-[(1R)-2-{2-[4-(difluoromethoxy)benzenesulfonyl]-2H,4H,5H,6H-pyrrolo[3,4-c]pyrazol-5-yl}-1-(2-fluorophenyl)-2-oxoethyl]formamide]"
8,4.9 nM,"O=C([C@H](CO)c1ccccc1F)N1Cc2cn(S(=O)(=O)c3ccc4ncsc4c3)nc2C1 [Compound 79, (2S)-1-[2-(1,3-benzothiazole-6-sulfonyl)-2H,4H,5H,6H-pyrrolo[3,4-c]pyrazol-5-yl]-2-(2-fluorophenyl)-3-hydroxypropan-1-one]"
9,2.1 nM,"O=C([C@H](CO)c1ccccc1F)N1Cc2cn(S(=O)(=O)c3cnc4c(c3)OCCO4)nc2C1 [Compound 80, (2S)-1-(2-{2H,3H-[1,4]dioxino[2,3-b]pyridine-7-sulfonyl}-2H,4H,5H,6H pyrrolo[3,4-c]pyrazol-5-yl)-2-(2-fluorophenyl)-3-hydroxypropan-1-one]"
10,3.8 nM,"O=CN[C@@H](C(=O)N1Cc2cn(S(=O)(=O)c3ccc4ncsc4c3)nc2C1)c1ccccc1Cl [Compound 81, N-[(1R)-2-[2-(1,3-benzothiazole-6-sulfonyl)-2H,4H,5H,6H-pyrrolo[3,4-c]pyrazol-5-yl]-1-(2-chlorophenyl)-2-oxoethyl]formamide]"
11,5 nM,"O=C([C@H](CO)c1ccccc1)N1Cc2cn(S(=O)(=O)c3ccc4ncccc4c3)nc2C1 [Compound 82, (2S)-3-hydroxy-2-phenyl-1-[2-(quinoline-6-sulfonyl)-2H,4H,5H,6H-pyrrolo[3,4-c]pyrazol-5-yl]propan-1-one]"
12,7.9 nM,"O=C([C@H](CO)c1ccccc1)N1Cc2cn(S(=O)(=O)c3cccc(OC(F)F)c3)nc2C1 [Compound 83, (2S)-1-{2-[3-(difluoromethoxy)benzenesulfonyl]-2H,4H,5H,6H-pyrrolo[3,4-c]pyrazol-5-yl}-3-hydroxy-2-phenylpropan-1-one]"
13,4.5 nM,"O=C([C@H](CO)c1ccccc1F)N1Cc2cn(S(=O)(=O)c3ccc4occc4c3)nc2C1 [Compound 84, (2S)-1-[2-(1-benzofuran-5-sulfonyl)-2H,4H,5H,6H-pyrrolo[3,4-c]pyrazol-5-yl]-2-(2-fluorophenyl)-3-hydroxypropan-1-one]"
14,6.8 nM,"O=C([C@H](CO)c1ccccc1F)N1Cc2cn(S(=O)(=O)c3ccc(OC(F)F)nc3)nc2C1 [Compound 85, (2S)-1-(2-[6-(difluoromethoxy)pyridin-3-yl]sulfonyl-2H,4H,5H,6H-pyrrolo[3,4-c]pyrazol-5-yl)-2-(2-fluorophenyl)-3-hydroxypropan-1-one]"
15,1.8 nM,"O=C([C@H](CO)c1ccccc1Cl)N1Cc2cn(S(=O)(=O)c3cnc4occc4c3)nc2C1 [Compound 86, (2S)-2-(2-chlorophenyl)-1-(2-{furo[2,3-b]pyridine-5-sulfonyl}-2H,4H,5H,6H-pyrrolo[3,4-c]pyrazol-5-yl)-3-hydroxypropan-1-one]"
16,3 nM,"COc1ccc(S(=O)(=O)n2cc3c(n2)CN(C(=O)[C@H](CO)c2ccccc2F)C3)cc1 [Compound 88, (2S)-2-(2-fluorophenyl)-3-hydroxy-1-[2-(4-methoxybenzenesulfonyl)-2H,4H,5H,6H-pyrrolo[3,4-c]pyrazol-5-yl]propan-1-one]"
17,430 nM,"Cn1ncc2ccc(S(=O)(=O)n3cc4c(n3)CN(C(=O)[C@H](CO)c3ccccc3)C4)cc21 [Compound 90, (2S)-3-hydroxy-1-{2-[(1-methyl-1H-indazol-6-yl)sulfonyl]-2H,4H,5H,6H-pyrrolo[3,4-c]pyrazol-5-yl}-2-phenylpropan-1-one]"
18,14 nM,"O=C([C@H](CO)c1ccccc1)N1Cc2cn(S(=O)(=O)c3ccc4c(cnn4C(F)F)c3)nc2C1 [Compound 91, (2S)-1-(2-{[1-(difluoromethyl)-1H-indazol-5-yl]sulfonyl}-2H,4H,5H,6H-pyrrolo[3,4-c]pyrazol-5-yl)-3-hydroxy-2-phenylpropan-1-one]"
19,17 nM,"O=C([C@H](CO)c1ccccc1)N1Cc2cn(S(=O)(=O)c3ccc4nccnc4c3)nc2C1 [Compound 94, (2S)-3-hydroxy-2-phenyl-1-[2-(quinoxaline-6-sulfonyl)-2H,4H,5H,6H-pyrrolo[3,4-c]pyrazol-5-yl]propan-1-one]"
20,7080 nM,"O=C([C@H](CO)c1ccccc1)N1Cc2cn(S(=O)(=O)c3ccc(OC4COC4)nc3)nc2C1 [Compound 95, (2S)-3-hydroxy-1-(2-{[6-(oxetan-3-yloxy)pyridin-3-yl]sulfonyl}-2H,4H,5H,6H-pyrrolo[3,4-c]pyrazol-5-yl)-2-phenylpropan-1-one]"
21,53 nM,"CN1Cc2cc(S(=O)(=O)n3cc4c(n3)CN(C(=O)[C@H](CO)c3ccccc3)C4)ccc2OC1=O [Compound 96, 6-({5-[(2S)-3-hydroxy-2-phenylpropanoyl]-2H,4H,5H,6H-pyrrolo[3,4-c]pyrazol-2-yl}sulfonyl)-3-methyl-3,4-dihydro-2H-1,3-benzoxazin-2-one]"
22,> 10000 nM,"O=C([C@H](CO)c1ccccc1)N1Cc2cn(S(=O)(=O)c3ccc(OC4CC4)nc3)nc2C1 [Compound 97, (2S)-1-{2-[(6-cyclopropoxypyridin-3-yl)sulfonyl]-2H,4H,5H,6H-pyrrolo[3,4-c]pyrazol-5-yl}-3-hydroxy-2-phenylpropan-1-one]"
23,41 nM,"O=C([C@H](CO)c1ccccc1)N1Cc2cn(S(=O)(=O)c3ccc(C4CC4)nc3)nc2C1 [Compound 101, (2S)-1-{2-[(6-cyclopropylpyridin-3-yl)sulfonyl]-2H,4H,5H,6H-pyrrolo[3,4-c]pyrazol-5-yl}-3-hydroxy-2-phenylpropan-1-one]"
